Patent publication US20250255990A1, “FLUORESCENT NANODIAMOND COATED WITH POROUS POLYDOPAMINE, AND USE THEREOF” (KOREA RESEARCH INSTITUTE OF STANDARDS AND SCIENCE, priority 2022, published 2025)

Tested on: HeLa cells
Assay: Annexin V-FITC / PI flow cytometry (FACS)
Type: cell-based
Conditions: 50 μg/mL, 16 hours
Procedure: In addition, analysis was performed using FACS (BD Accuri™, BD Biosciences) to evaluate the biocompatibility of FND@mPDA-PEG. Specifically, HeLa cells were incubated with 50 μg/mL of FND, FND@mPDA-PEG, or doxorubicin for the control experiment at 37° C. for 16 hours and washed with PBS. Cells (1×10^5 cells/sample) were suspended in 100 μL of 1× binding buffer and stained with 5 μL of Annexin V-FITC and 5 μL of PI. The cells were gently vortexed and incubated at room temperature for 15 minutes in the dark. 400 μL of 1× binding buffer was added to each tube and then analyzed by flow cytometry. 10,000 or more events were collected and the data were analyzed using FlowJo™ version 10.7 software.

In the case of `COc1cccc2c1C(=O)c1c(O)c3c(c(O)c1C2=O)C[C@@](O)(C(=O)CO)C[C@@H]3O[C@H]1C[C@H](N)[C@H](O)[C@H](C)O1` [doxorubicin], the “apoptosis / cell survival” value is reported as “induced apoptosis of HeLa cells”.
